According to patent US20230279002A1, “Polymorphs of Crystalline Forms of 3,10-dimethoxy-5,8,13,13a-tetrahydro-6H-isoquinolino[3,2-a]isoquinolin-9-yl 3-fluorobenzenesulfonate and Salts Thereof” (CVI Pharmaceuticals Limited, priority 2020, published 2023):
Like-named read-outs stand apart in the source and are kept apart here.

Tests used:
Assay type in all cases: physicochemical
[1] = Solid stability at 40° C./0% RH (closed) and 40° C./75% RH (open), HPLC; conditions: for 0 day % remaining / 7 day % remaining / 21 day % remaining: solid
Method in brief: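 Solid compound (5 mg) stored in the dark at 40 °C/0% RH in closed vials and at 40 °C/75% RH open. Samples analysed by HPLC at day 0, 5 and 10, or at days 0, 7 and 21, depending on the study.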

[2] = TGA (Thermal Gravimetric Analysis) weight loss; conditions: DSC and TGA
Experimental: TGA (Thermal Gravimetric Analysis): Samples of compounds (4˜6 mg) were weighed into the pan, and heated under nitrogen purge using a ramp rate of 20° C./min over the range of 30° C.˜350° C.

[3] = Solubility in SGF, FaSSIF, FeSSIF, 0.1M HCl, pH 4.5 and pH 6.8 aqueous at 25° C. (HPLC); conditions: for solubility: 25 °C, thermodynamic from solid, read-out: Solubility conc.(mg/ml); for Final pH: solubility test
Experimental: Solubility: Excess drug substance was equilibrated with SGF (Simulated Gastric Fluid), FaSSIF (Simulated Small Intestinal Fluid under Fasted state), FeSSIF (Simulated Small Intestinal Fluid under Fed state), 0.1M HCl, pH 4.5 aqueous, and pH 6.8 aqueous at 25° C. After stirring for 20˜24 h, each sample was filtered, diluted appropriately and analyzed by HPLC. The experiment was terminated once a solubility target of 5 mg/mL was reached.

[4] = Solution stability in 0.1 N HCl, pH 4.5 buffer and pH 6.8 buffer at 25° C. and 37° C., HPLC; conditions: for Remaining %: 50 μg/mL, 40% MeOH; for Solution stability: 0.1 N HCl, pH 4.5 buffer and pH 6.8 buffer
Method in brief: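 Methanol stock (1.0 mg/mL) diluted with each medium to ionic strength 0.15 M, final 50 μg/mL in 40% MeOH; acetate used for pH 4.5. For 1b and 3b at pH 6.8, final 25 μg/mL in 40% DMSO. Solutions stored at 25° C. and 37° C.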

[5] = DVS (Dynamic Vapor Sorption) moisture sorption/desorption, hygroscopicity classification
Method in brief: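 Moisture sorption/desorption profiled by DVS on about 10–20 mg sample, isothermal at 25° C, cycling 0%→95%→0% RH in 5% RH steps. Equilibrium per step taken at dm/dt ≤ 0.01%/min. Hygroscopicity class assigned from %-moisture gain versus rising RH.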

Solid-state stability (HPLC) ([1]; 40° C./0% RH (closed) and 40° C./75% RH (open), dark, up to 3 weeks): substantially stable
0 day % remaining ([1]; 40° C. (0% RH, closed)): 100.0%
7 day % remaining ([1]; 40° C. (0% RH, closed)): 100.4%
21 day % remaining ([1]; 40° C. (0% RH, closed)): 100.0%
0 day % remaining ([1]; 40° C./75% RH (open)): 100.0%
7 day % remaining ([1]; 40° C./75% RH (open)): 100.3%
21 day % remaining ([1]; 40° C./75% RH (open)): 100.1%
Temperature until which there is no weight loss [2]: about 200 °C
solubility ([3]; 0.1 N HCl, simulated gastric fluid, 0.1N HCL, solubility of salts transformed to freebase): 0.206 mg/mL
solubility ([3]; FaSSIF (Simulated Small Intestinal Fluid, fasted state), fassif, FaSSIF, solubility of salts transformed to freebase): 0.01 mg/mL
solubility ([3]; FeSSIF (Simulated Small Intestinal Fluid, fed state), fessif, FeSSIF, solubility of salts transformed to freebase): 0.011 mg/mL
Solubility conc.(mg/ml) ([3]; SGF, solubility of salts transformed to freebase): 0.147 mg/mL
solubility ([3]; pH 4.5 acetate buffer (USP), pH 4.5, aqueous buffer, pH 4.5 Acetate Buffer (USP), solubility of salts transformed to freebase): 0.01 mg/mL
solubility ([3]; pH 6.8 phosphate buffer (USP), pH 6.8, aqueous buffer, pH 6.8 Phosphate Buffer (USP), solubility of salts transformed to freebase): 0.008 mg/mL
Final pH ([3]; 0.1N HCL): 1.59
Final pH ([3]; FaSSIF): 6.23
Final pH ([3]; FeSSIF): 4.93
Final pH ([3]; SGF): 1.59
Final pH ([3]; Water): 2.74
Final pH ([3]; pH 4.5 Acetate Buffer (USP)): 4.44
Final pH ([3]; pH 6.8 Phosphate Buffer (USP)): 6.67
solubility ([3]; water, water, Water, solubility of salts transformed to freebase): 0.096 mg/mL
Solution stability, overall comparison of 1b, 2b and 3b ([4]; 25° C. and 37° C.): best solution stability behaviors
Remaining % ([4]; 25° C., 0.1N HCL, 0 h): 100.00%
Remaining % ([4]; 25° C., 0.1N HCL, 3 h): 100.07%
Remaining % ([4]; 25° C., 0.1N HCL, 24 h): 100.37%
Solution stability ([4]; 25° C., 24 h): stable
Remaining % ([4]; 25° C., pH 4.5, 0 h): 100.00%
Remaining % ([4]; 25° C., pH 4.5, 3 h): 99.80%
Remaining % ([4]; 25° C., pH 4.5, 24 h): 99.52%
Remaining % ([4]; 25° C., pH 6.8, 0 h): 100.00%
Remaining % ([4]; 25° C., pH 6.8, 3 h): 99.52%
Remaining % ([4]; 25° C., pH 6.8, 24 h): 98.01%
Remaining % ([4]; 37° C., 0.1N HCL, 0 h): 100.00%
Remaining % ([4]; 37° C., 0.1N HCL, 3 h): 100.34%
Remaining % ([4]; 37° C., 0.1N HCL, 24 h): 100.95%
Solution stability ([4]; 37° C., 24 h): stable
Remaining % ([4]; 37° C., pH 4.5, 0 h): 100.00%
Remaining % ([4]; 37° C., pH 4.5, 3 h): 100.00%
Remaining % ([4]; 37° C., pH 4.5, 24 h): 99.45%
Remaining % ([4]; 37° C., pH 6.8, 0 h): 100.00%
Remaining % ([4]; 37° C., pH 6.8, 3 h): 100.28%
Remaining % ([4]; 37° C., pH 6.8, 24 h): 99.86%
Hygroscopicity classification by DVS ([5]; 25 °C): not hygroscopic
Change In Mass (%) - ref, Desorption ([5]; Cycle 1, target RH 0.0%): −0.0081%
Change In Mass (%) - ref, Sorption ([5]; Cycle 1, target RH 0.0%): 0.0011%
Change In Mass (%) - ref, Desorption ([5]; Cycle 1, target RH 5.0%): −0.0035%
Change In Mass (%) - ref, Hysteresis ([5]; Cycle 1, target RH 5.0%): −0.0042%
Change In Mass (%) - ref, Sorption ([5]; Cycle 1, target RH 5.0%): 0.0007%
Change In Mass (%) - ref, Desorption ([5]; Cycle 1, target RH 10.0%): 0.0000%
Change In Mass (%) - ref, Hysteresis ([5]; Cycle 1, target RH 10.0%): −0.0032%
Change In Mass (%) - ref, Sorption ([5]; Cycle 1, target RH 10.0%): 0.0032%
Change In Mass (%) - ref, Desorption ([5]; Cycle 1, target RH 15.0%): 0.0011%
Change In Mass (%) - ref, Hysteresis ([5]; Cycle 1, target RH 15.0%): −0.0033%
Change In Mass (%) - ref, Sorption ([5]; Cycle 1, target RH 15.0%): 0.0044%
Change In Mass (%) - ref, Desorption ([5]; Cycle 1, target RH 20.0%): 0.0044%
Change In Mass (%) - ref, Hysteresis ([5]; Cycle 1, target RH 20.0%): −0.0037%
Change In Mass (%) - ref, Sorption ([5]; Cycle 1, target RH 20.0%): 0.0081%
Change In Mass (%) - ref, Desorption ([5]; Cycle 1, target RH 25.0%): 0.0062%
Change In Mass (%) - ref, Hysteresis ([5]; Cycle 1, target RH 25.0%): −0.0037%
Change In Mass (%) - ref, Sorption ([5]; Cycle 1, target RH 25.0%): 0.0099%
Change In Mass (%) - ref, Desorption ([5]; Cycle 1, target RH 30.0%): 0.0081%
Change In Mass (%) - ref, Hysteresis ([5]; Cycle 1, target RH 30.0%): −0.0037%
Change In Mass (%) - ref, Sorption ([5]; Cycle 1, target RH 30.0%): 0.0118%
Change In Mass (%) - ref, Desorption ([5]; Cycle 1, target RH 35.0%): 0.0100%
Change In Mass (%) - ref, Hysteresis ([5]; Cycle 1, target RH 35.0%): −0.0033%
Change In Mass (%) - ref, Sorption ([5]; Cycle 1, target RH 35.0%): 0.0134%
Change In Mass (%) - ref, Desorption ([5]; Cycle 1, target RH 40.0%): 0.0123%
Change In Mass (%) - ref, Hysteresis ([5]; Cycle 1, target RH 40.0%): −0.0026%
Change In Mass (%) - ref, Sorption ([5]; Cycle 1, target RH 40.0%): 0.0150%
Change In Mass (%) - ref, Desorption ([5]; Cycle 1, target RH 45.0%): 0.0185%
Change In Mass (%) - ref, Hysteresis ([5]; Cycle 1, target RH 45.0%): 0.0012%
Change In Mass (%) - ref, Sorption ([5]; Cycle 1, target RH 45.0%): 0.0173%
Change In Mass (%) - ref, Desorption ([5]; Cycle 1, target RH 50.0%): 0.0204%
Change In Mass (%) - ref, Hysteresis ([5]; Cycle 1, target RH 50.0%): 0.0035%
Change In Mass (%) - ref, Sorption ([5]; Cycle 1, target RH 50.0%): 0.0169%
Change In Mass (%) - ref, Desorption ([5]; Cycle 1, target RH 55.0%): 0.0243%
Change In Mass (%) - ref, Hysteresis ([5]; Cycle 1, target RH 55.0%): 0.0056%
Change In Mass (%) - ref, Sorption ([5]; Cycle 1, target RH 55.0%): 0.0187%
Change In Mass (%) - ref, Desorption ([5]; Cycle 1, target RH 60.0%): 0.0264%
Change In Mass (%) - ref, Hysteresis ([5]; Cycle 1, target RH 60.0%): 0.0063%
Change In Mass (%) - ref, Sorption ([5]; Cycle 1, target RH 60.0%): 0.0201%
Change In Mass (%) - ref, Desorption ([5]; Cycle 1, target RH 65.0%): 0.0294%
Change In Mass (%) - ref, Hysteresis ([5]; Cycle 1, target RH 65.0%): 0.0083%
Change In Mass (%) - ref, Sorption ([5]; Cycle 1, target RH 65.0%): 0.0211%
Change In Mass (%) - ref, Desorption ([5]; Cycle 1, target RH 70.0%): 0.0344%
Change In Mass (%) - ref, Hysteresis ([5]; Cycle 1, target RH 70.0%): 0.0074%
Change In Mass (%) - ref, Sorption ([5]; Cycle 1, target RH 70.0%): 0.0270%
Change In Mass (%) - ref, Desorption ([5]; Cycle 1, target RH 75.0%): 0.0382%
Change In Mass (%) - ref, Hysteresis ([5]; Cycle 1, target RH 75.0%): 0.0030%
Change In Mass (%) - ref, Sorption ([5]; Cycle 1, target RH 75.0%): 0.0352%
Change In Mass (%) - ref, Desorption ([5]; Cycle 1, target RH 80.0%): 0.0446%
Change In Mass (%) - ref, Hysteresis ([5]; Cycle 1, target RH 80.0%): 0.0037%
Change In Mass (%) - ref, Sorption ([5]; Cycle 1, target RH 80.0%): 0.0409%
Change In Mass (%) - ref, Desorption ([5]; Cycle 1, target RH 85.0%): 0.0530%
Change In Mass (%) - ref, Hysteresis ([5]; Cycle 1, target RH 85.0%): 0.0030%
Change In Mass (%) - ref, Sorption ([5]; Cycle 1, target RH 85.0%): 0.0500%
Change In Mass (%) - ref, Desorption ([5]; Cycle 1, target RH 90.0%): 0.0689%
Change In Mass (%) - ref, Hysteresis ([5]; Cycle 1, target RH 90.0%): 0.0051%
Change In Mass (%) - ref, Sorption ([5]; Cycle 1, target RH 90.0%): 0.0638%
Change In Mass (%) - ref, Desorption ([5]; Cycle 1, target RH 95.0%): 0.0941%
Change In Mass (%) - ref, Sorption ([5]; Cycle 1, target RH 95.0%): 0.0941%
moisture picked up (DVS) ([5]; at 95% RH, 25 °C): ~0.1%
Compound: COc1ccc2c(c1)CCN1Cc3c(ccc(OC)c3OS(=O)(=O)c3cccc(F)c3)C[C@@H]21 [Compound 2b]
